{"source": "patent US20260070945A1", "about": "“MACROCYCLIC IMMUNOMODULATORS” (Bristol-Myers Squibb Company, priority 2022, published 2026)", "note": "Where a SMILES comes first, the peptide text is derived from it. Bridges are numbered along the chain shown (N, C = ends). [ ]: non-standard residue; d: D form. The star is where a group is joined. ξ: configuration not given here. Bip = N[C@@H](Cc1ccc(-c2ccccc2)cc1)C(=O)O; Phe(3-Me) = Cc1cccc(C[C@H](N)C(=O)O)c1; Val(3-OH) = CC(C)(O)[C@H](N)C(=O)O; 4Pal = N[C@@H](Cc1ccncc1)C(=O)O; 3Thi = N[C@@H](Cc1ccsc1)C(=O)O; Cha = N[C@@H](CC1CCCCC1)C(=O)O; Cit = NC(=O)NCCC[C@H](N)C(=O)O; Thr(3ξ) = CC(O)[C@H](N)C(=O)O; Carboxymethyl = O=C(O)C*; NMeA = CN[C@@H](C)C(=O)O; Aun = NCCCCCCCCCCC(=O)O; Dab = NCC[C@H](N)C(=O)O; AEEA = NCCOCCOCC(=O)O; Piv = CC(C)(C)C(=O)*", "data": [{"target": "T1, PD-1/PD-L1 interaction (PE-labeled human PD-L1-Ig binding to Jurkat cell line over-expressing human PD-1) (Homo sapiens, UniProt Q15116)", "T1 construct": "expressed in transfected cells; host or cells: Jurkat", "T1 sequence (Q15116 25-288)": "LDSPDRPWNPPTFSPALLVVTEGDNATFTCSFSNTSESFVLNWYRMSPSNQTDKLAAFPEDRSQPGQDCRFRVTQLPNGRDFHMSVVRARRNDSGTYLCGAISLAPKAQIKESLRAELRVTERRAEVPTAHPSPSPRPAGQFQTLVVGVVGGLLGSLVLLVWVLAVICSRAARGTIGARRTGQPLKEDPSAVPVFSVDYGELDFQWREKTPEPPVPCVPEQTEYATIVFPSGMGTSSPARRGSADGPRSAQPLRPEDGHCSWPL", "test": "Jurkat-PD-1 Cell Binding High-Content Screening Assay (CBA)", "conditions": "Jurkat-hPD-1 cells, PE-labeled PD-L1-Ig 20 nM final; read-out: Jurkat HPD1 PDL1 IC50", "how_it_was_run": "(§1)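 Jurkat cells overexpressing human PD-1 (8×10^3/well, DMEM + 10% FCS) preincubated with compound 2 h at 37 °C, then PE-labelled human PD-L1-Ig (20 nM final) for 1 h. Cells fixed in paraformaldehyde with Hoechst 33342; bound PD-L1 quantified by high-content imaging.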", "units": {"IC50": "nM"}, "values": [{"smiles": "CC(C)C[C@@H]1NC(=O)[C@H](Cc2c[nH]c3ccccc23)NC(=O)[C@H](CC(=O)O)NC(=O)[C@H](Cc2ccc(OCC(=O)O)cc2)NC(=O)[C@H](Cc2ccc(OCC(=O)O)cc2)NC(=O)CSC[C@@H](C(=O)NCCOCCOCC(=O)NCCCCCCCCCCC(=O)O)NC(=O)[C@H](CO)NC(=O)[C@H](C(C)(C)O)NC(=O)[C@H](CC2CCCCC2)NC(=O)[C@H](CCN)NC(=O)[C@@H](CC(C)C)NC(=O)[C@H](C)N(C)C(=O)[C@H](C(C)C)NC(=O)[C@H](Cc2ccc(-c3ccccc3)cc2)NC1=O", "note": "[Example 2444] ({CH2CO}-Y(Carboxymethyl)Y(Carboxymethyl)DWL[Bip]V[NMeA][dL][Dab][Cha][Val(3-OH)]SC[AEEA][Aun]-OH; thioether N-14)", "IC50": 40.4}, {"smiles": "CC(C)C[C@@H]1NC(=O)[C@H](Cc2c[nH]c3ccccc23)NC(=O)[C@H](CC(=O)O)NC(=O)[C@H](Cc2ccc(OCC(=O)O)cc2)NC(=O)[C@H](Cc2ccc(OCC(=O)O)cc2)NC(=O)CSC[C@@H](C(=O)NCCOCCOCC(=O)NCCCCCCCCCCC(=O)O)NC(=O)[C@H](CO)NC(=O)[C@H](Cc2cnc[nH]2)NC(=O)[C@H](CC2CCCCC2)NC(=O)[C@H](CCN)NC(=O)[C@@H](CC(C)C)NC(=O)[C@H](C)N(C)C(=O)[C@H](C(C)C)NC(=O)[C@H](Cc2ccc(-c3ccccc3)cc2)NC1=O", "note": "[Example 2445] ({CH2CO}-Y(Carboxymethyl)Y(Carboxymethyl)DWL[Bip]V[NMeA][dL][Dab][Cha]HSC[AEEA][Aun]-OH; thioether N-14)", "IC50": 46.5}, {"smiles": "CC(C)C[C@@H]1NC(=O)[C@H](Cc2c[nH]c3ccccc23)NC(=O)[C@H](CC(=O)O)NC(=O)[C@H](Cc2ccc(OCC(=O)O)cc2)NC(=O)[C@H](Cc2ccc(OCC(=O)O)cc2)NC(=O)CSC[C@@H](C(=O)NCCOCCOCC(=O)NCCCCCCCCCCC(=O)O)NC(=O)[C@H](CO)NC(=O)[C@H](C(C)(C)O)NC(=O)[C@H](CC2CCCCC2)NC(=O)[C@H](CC(N)=O)NC(=O)[C@@H](CC(C)C)NC(=O)[C@H](C)N(C)C(=O)[C@H](C(C)C)NC(=O)[C@H](Cc2ccc(-c3ccccc3)cc2)NC1=O", "note": "[Example 2446] ({CH2CO}-Y(Carboxymethyl)Y(Carboxymethyl)DWL[Bip]V[NMeA][dL]N[Cha][Val(3-OH)]SC[AEEA][Aun]-OH; thioether N-14)", "IC50": 239}, {"smiles": "CC(=O)NCC[C@@H]1NC(=O)[C@H](C(C)(C)O)NC(=O)[C@H](CC2CCCCC2)NC(=O)[C@H](CCN)NC(=O)[C@@H](CC(C)C)NC(=O)[C@H](C)N(C)C(=O)[C@H](C(C)C)NC(=O)[C@H](Cc2ccc(-c3ccccc3)cc2)NC(=O)[C@H](CC(C)C)NC(=O)[C@H](Cc2c[nH]c3ccccc23)NC(=O)[C@H](CC(=O)O)NC(=O)[C@H](Cc2ccc(OCC(=O)O)cc2)NC(=O)[C@H](Cc2ccc(OCC(=O)O)cc2)NC(=O)CSC[C@@H](C(=O)NCCOCCOCC(=O)NCCCCCCCCCCC(=O)O)NC1=O", "note": "[Example 2447] ({CH2CO}-Y(Carboxymethyl)Y(Carboxymethyl)DWL[Bip]V[NMeA][dL][Dab][Cha][Val(3-OH)][Dab](Ac)C[AEEA][Aun]-OH; thioether N-14)", "IC50": 38.2}, {"smiles": "CC(C)C[C@@H]1NC(=O)[C@H](Cc2c[nH]c3ccccc23)NC(=O)[C@H](CC(=O)O)NC(=O)[C@H](Cc2ccc(OCC(=O)O)cc2)NC(=O)[C@H](C(C)O)NC(=O)CSC[C@@H](C(=O)NCCOCCOCC(=O)NCCCCCCCCCCC(=O)O)NC(=O)[C@H](CO)NC(=O)[C@H](C(C)(C)O)NC(=O)[C@H](CC2CCCCC2)NC(=O)[C@H](CCC(=O)O)NC(=O)[C@@H](CC(C)C)NC(=O)[C@H](C)N(C)C(=O)[C@H](C(C)C)NC(=O)[C@H](Cc2ccc(-c3ccccc3)cc2)NC1=O", "note": "(stereo partly drawn) [Example 2448] ({CH2CO}-[Thr(3ξ)]Y(Carboxymethyl)DWL[Bip]V[NMeA][dL]E[Cha][Val(3-OH)]SC[AEEA][Aun]-OH; thioether N-14)", "IC50": 128}, {"smiles": "CC(C)C[C@@H]1NC(=O)[C@H](Cc2c[nH]c3ccccc23)NC(=O)[C@H](CC(=O)O)NC(=O)[C@H](Cc2ccc(OCC(=O)O)cc2)NC(=O)[C@H](Cc2ccc(OCC(=O)O)cc2)NC(=O)CSC[C@@H](C(=O)NCCOCCOCC(=O)NCCCCCCCCCCC(=O)O)NC(=O)[C@H](CO)NC(=O)[C@H](Cc2cnc[nH]2)NC(=O)[C@H](CC2CCCCC2)NC(=O)[C@H](CCC(=O)O)NC(=O)[C@@H](CC(C)C)NC(=O)[C@H](C)N(C)C(=O)[C@H](C(C)C)NC(=O)[C@H](Cc2ccc(-c3ccccc3)cc2)NC1=O", "note": "[Example 2449] ({CH2CO}-Y(Carboxymethyl)Y(Carboxymethyl)DWL[Bip]V[NMeA][dL]E[Cha]HSC[AEEA][Aun]-OH; thioether N-14)", "IC50": 272}, {"smiles": "CC(=O)NCCCC[C@@H]1NC(=O)[C@H](Cc2ccc(-c3ccccc3)cc2)NC(=O)[C@H](Cc2ccc(O)cc2)NC(=O)[C@H](Cc2cccc(C)c2)NC(=O)[C@H](CC(=O)O)NC(=O)[C@H](Cc2ccc(OCC(=O)O)cc2)NC(=O)[C@H](C(C)O)NC(=O)CSC[C@@H](C(=O)N[C@@H](CCN)C(=O)NCCCCCCCCCCC(=O)O)NC(=O)[C@H](C(C)O)NC(=O)[C@H](C(C)C)NC(=O)[C@H](CC2CCCCC2)NC(=O)[C@H](CCN)NC(=O)[C@@H](CC(C)C)NC(=O)[C@H](C)N(C)C1=O", "note": "(stereo partly drawn) [Example 2451] ({CH2CO}-[Thr(3ξ)]Y(Carboxymethyl)D[Phe(3-Me)]Y[Bip]K(Ac)[NMeA][dL][Dab][Cha]V[Thr(3ξ)]C[Dab][Aun]-OH; thioether N-14)", "IC50": 13.9}, {"smiles": "Cc1cccc(C[C@@H]2NC(=O)[C@H](CC(=O)O)NC(=O)[C@H](Cc3ccc(OCC(=O)O)cc3)NC(=O)[C@H](C(C)O)NC(=O)CSC[C@@H](C(=O)N[C@H](CC(N)=O)C(=O)NCCCCCCCCCCC(=O)O)NC(=O)[C@H](C(C)O)NC(=O)[C@H](C(C)C)NC(=O)[C@H](CC3CCCCC3)NC(=O)[C@H](CCN)NC(=O)[C@@H](CC(C)C)NC(=O)[C@H](C)N(C)C(=O)[C@H](CCCCNC(=O)C(C)(C)C)NC(=O)[C@H](Cc3ccc(-c4ccccc4)cc3)NC(=O)[C@H](Cc3ccc(O)cc3)NC2=O)c1", "note": "(stereo partly drawn) [Example 2452] ({CH2CO}-[Thr(3ξ)]Y(Carboxymethyl)D[Phe(3-Me)]Y[Bip]K(Piv)[NMeA][dL][Dab][Cha]V[Thr(3ξ)]C[dN][Aun]-OH; thioether N-14)", "IC50": 12.2}, {"smiles": "CC(C)C[C@H]1NC(=O)[C@H](C)N(C)C(=O)[C@H](C(C)C)NC(=O)[C@H](Cc2ccc(-c3ccccc3)cc2)NC(=O)[C@H](C(C)C)NC(=O)[C@H](Cc2c[nH]c3ccccc23)NC(=O)[C@H](CC(=O)O)NC(=O)[C@H](Cc2ccc(OCC(=O)O)cc2)NC(=O)[C@H](Cc2ccc(OCC(=O)O)cc2)NC(=O)CSC[C@@H](C(=O)NCCOCCOCC(=O)NCCCCCCCCCCC(=O)O)NC(=O)[C@H](CO)NC(=O)[C@H](C(C)C)NC(=O)[C@H](CC2CCCCC2)NC(=O)[C@H](CCN)NC1=O", "note": "[Example 2453] ({CH2CO}-Y(Carboxymethyl)Y(Carboxymethyl)DWV[Bip]V[NMeA][dL][Dab][Cha]VSC[AEEA][Aun]-OH; thioether N-14)", "IC50": 13.1}, {"smiles": "Cc1cccc(C[C@@H]2NC(=O)[C@H](CC(=O)O)NC(=O)[C@H](Cc3ccc(OCC(=O)O)cc3)NC(=O)[C@H](Cc3ccncc3)NC(=O)CSC[C@@H](C(=O)N[C@@H](CCN)C(=O)NCCCCCCCCCCC(=O)O)NC(=O)[C@H](CO)NC(=O)[C@H](CO)NC(=O)[C@H](CC3CCCCC3)NC(=O)[C@H](CCN)NC(=O)[C@@H](CC(C)C)NC(=O)[C@H](C)N(C)C(=O)[C@H](Cc3ccc(OCC(=O)O)cc3)NC(=O)[C@H](Cc3ccc(-c4ccccc4)cc3)NC(=O)[C@H](Cc3ccc(OCC(=O)O)cc3)NC2=O)c1", "note": "[Example 2454] ({CH2CO}-[4Pal]Y(Carboxymethyl)D[Phe(3-Me)]Y(Carboxymethyl)[Bip]Y(Carboxymethyl)[NMeA][dL][Dab][Cha]SSC[Dab][Aun]-OH; thioether N-14)", "IC50": 11.1}]}, {"target": "T1, PD-1/PD-L1 interaction (PE-labeled human PD-L1-Ig binding to Jurkat cell line over-expressing human PD-1)", "test": "Jurkat-PD-1 Cell Binding High-Content Screening Assay (CBA)", "conditions": "PE-labeled PD-L1-Ig 20 nM final, Jurkat-hPD-1 cells; read-out: Jurkat HPD1 PDL1 IC50", "how_it_was_run": "as §1", "units": {"IC50": "nM"}, "values": [{"smiles": "CC(C)C[C@H]1NC(=O)[C@H](C)N(C)C(=O)[C@H](C(C)C)NC(=O)[C@H](Cc2ccc(-c3ccccc3)cc2)NC(=O)[C@H](C(C)C)NC(=O)[C@H](Cc2c[nH]c3ccccc23)NC(=O)[C@H](CC(=O)O)NC(=O)[C@H](Cc2ccc(OCC(=O)O)cc2)NC(=O)[C@H](Cc2ccc(OCC(=O)O)cc2)NC(=O)CSC[C@@H](C(=O)NCCOCCOCC(=O)NCCCCCCCCCCC(=O)O)NC(=O)[C@H](CO)NC(=O)[C@H](C(C)(C)O)NC(=O)[C@H](CC2CCCCC2)NC(=O)[C@H](CCN)NC1=O", "note": "[Example 2455] ({CH2CO}-Y(Carboxymethyl)Y(Carboxymethyl)DWV[Bip]V[NMeA][dL][Dab][Cha][Val(3-OH)]SC[AEEA][Aun]-OH; thioether N-14)", "IC50": 8.4}, {"smiles": "CC(C)C[C@H]1NC(=O)[C@H](C)N(C)C(=O)[C@H](CCCNC(N)=O)NC(=O)[C@H](Cc2ccc(-c3ccccc3)cc2)NC(=O)[C@H](C(C)C)NC(=O)[C@H](Cc2c[nH]c3ccccc23)NC(=O)[C@H](CC(=O)O)NC(=O)[C@H](Cc2ccc(OCC(=O)O)cc2)NC(=O)[C@H](Cc2ccc(OCC(=O)O)cc2)NC(=O)CSC[C@@H](C(=O)NCCOCCOCC(=O)NCCCCCCCCCCC(=O)O)NC(=O)[C@H](CO)NC(=O)[C@H](C(C)(C)O)NC(=O)[C@H](CC2CCCCC2)NC(=O)[C@H](CCN)NC1=O", "note": "[Example 2456] ({CH2CO}-Y(Carboxymethyl)Y(Carboxymethyl)DWV[Bip][Cit][NMeA][dL][Dab][Cha][Val(3-OH)]SC[AEEA][Aun]-OH; thioether N-14)", "IC50": 12.5}, {"smiles": "Cc1cccc(C[C@@H]2NC(=O)[C@H](CC(=O)O)NC(=O)[C@H](Cc3ccc(OCC(=O)O)cc3)NC(=O)[C@H](Cc3ccsc3)NC(=O)CSC[C@@H](C(=O)N[C@@H](CCN)C(=O)NCCCCCCCCCCC(=O)O)NC(=O)[C@H](CO)NC(=O)[C@H](C(C)(C)O)NC(=O)[C@H](CC3CCCCC3)NC(=O)[C@H](Cc3cnc[nH]3)NC(=O)[C@@H](CC(C)C)NC(=O)[C@H](C)N(C)C(=O)[C@H](Cc3ccc(OCC(=O)O)cc3)NC(=O)[C@H](Cc3ccc(-c4ccccc4)cc3)NC(=O)[C@H](Cc3ccc(OCC(=O)O)cc3)NC2=O)c1", "note": "[Example 2457] ({CH2CO}-[3Thi]Y(Carboxymethyl)D[Phe(3-Me)]Y(Carboxymethyl)[Bip]Y(Carboxymethyl)[NMeA][dL]H[Cha][Val(3-OH)]SC[Dab][Aun]-OH; thioether N-14)", "IC50": 41.2}]}]}
